According to US20240116946A1 (Gilead Sciences, Inc., priority 2022, published 2024):

What was measured:
SARS-CoV-2-NLuc = experiment: microbe, parasite or virus in culture; assay type: cell-based, SARS Coronavirus 2; details: read-out: MPro EC50
[1] = target: recombinant SARS-CoV-2 Main protease (Mpro) (Severe acute respiratory syndrome coronavirus 2 (2019-nCoV) (SARS-CoV-2), UniProt P0DTD1); experiment: Cov Mpro Biochemical IC50 Assay; details: recombinant SARS-CoV-2 Mpro 7.5 nM, fluorogenic peptide substrate 40 μM; read-out: MPro IC50

## COc1cc(-c2cc3c(s2)c(=O)n(-c2cncc4[nH]nc(C)c24)c(=O)n3CCC#N)c(Cl)cc1F (single isomer, unassigned) [Example 960, 3-(6-(2-chloro-4-fluoro-5-methoxyphenyl)-3-(3-methyl-1H-pyrazolo[3,4-c]pyridin-4-yl)-2,4-dioxo-3,4-dihydrothieno[3,2-d]pyrimidin-1(2H)-yl)propanenitrile]
SARS-CoV-2-NLuc
  EC50: 163 nM
[1]
  IC50: 79.6 nM

## Cn1ncc2cncc(-n3c(=O)c4sc(-c5ccccc5C#N)cc4n(CCC#N)c3=O)c21 (single isomer, unassigned) [Example 961, 2-(1-(2-cyanoethyl)-3-(1-methyl-1H-pyrazolo[4,3-c]pyridin-7-yl)-2,4-dioxo-1,2,3,4-tetrahydrothieno[3,2-d]pyrimidin-6-yl)benzonitrile]
SARS-CoV-2-NLuc
  EC50: 19.6 nM
[1]
  IC50: 6.18 nM

## Cn1ncc2cncc(-n3c(=O)c4sc(-c5ccccc5C#N)cc4n(CCC#N)c3=O)c21 (single isomer, unassigned) [Example 962, 2-(1-(2-cyanoethyl)-3-(1-methyl-1H-pyrazolo[4,3-c]pyridin-7-yl)-2,4-dioxo-1,2,3,4-tetrahydrothieno[3,2-d]pyrimidin-6-yl)benzonitrile]
SARS-CoV-2-NLuc
  EC50: > 1000 nM
[1]
  IC50: > 1000 nM

## N#CCCn1c(=O)n(-c2cncc3ccccc23)c(=O)c2sc(-c3ccccc3C#N)cc21 (single isomer, unassigned) [Example 963, 2-(1-(2-cyanoethyl)-3-(isoquinolin-4-yl)-2,4-dioxo-1,2,3,4-tetrahydrothieno[3,2-d]pyrimidin-6-yl)benzonitrile]
SARS-CoV-2-NLuc
  EC50: 14.6 nM
[1]
  IC50: 7.92 nM

## N#CCCn1c(=O)n(-c2cncc3ccccc23)c(=O)c2sc(-c3ccccc3C#N)cc21 (single isomer, unassigned) [Example 964, 2-(1-(2-cyanoethyl)-3-(isoquinolin-4-yl)-2,4-dioxo-1,2,3,4-tetrahydrothieno[3,2-d]pyrimidin-6-yl)benzonitrile]
SARS-CoV-2-NLuc
  EC50: 87 nM
[1]
  IC50: 62.5 nM

## Cc1nc2cncc(-n3c(=O)c4sc(-c5ccc(F)cc5Cl)cc4n(CCC#N)c3=O)c2n1C (single isomer, unassigned) [Example 965, 3-(6-(2-chloro-4-fluorophenyl)-3-(1,2-dimethyl-1H-imidazo[4,5-c]pyridin-7-yl)-2,4-dioxo-3,4-dihydrothieno[3,2-d]pyrimidin-1(2H)-yl)propanenitrile]
SARS-CoV-2-NLuc
  EC50: 78.3 nM
[1]
  IC50: 20.1 nM

## Cc1nc2cncc(-n3c(=O)c4sc(-c5ccc(F)cc5Cl)cc4n(CCC#N)c3=O)c2n1C (single isomer, unassigned) [Example 966, 3-(6-(2-chloro-4-fluorophenyl)-3-(1,2-dimethyl-1H-imidazo[4,5-c]pyridin-7-yl)-2,4-dioxo-3,4-dihydrothieno[3,2-d]pyrimidin-1(2H)-yl)propanenitrile]
SARS-CoV-2-NLuc
  EC50: > 1000 nM
[1]
  IC50: 309 nM

## COc1cc(-c2cc3c(s2)c(=O)n(-c2cncc4ccccc24)c(=O)n3CCC#N)c(C#N)cc1F (single isomer, unassigned) [Example 967, 2-(1-(2-cyanoethyl)-3-(isoquinolin-4-yl)-2,4-dioxo-1,2,3,4-tetrahydrothieno[3,2-d]pyrimidin-6-yl)-5-fluoro-4-methoxybenzonitrile]
SARS-CoV-2-NLuc
  EC50: 1.83 nM
[1]
  IC50: 1.82 nM

## COc1cc(-c2cc3c(s2)c(=O)n(-c2cncc4ccccc24)c(=O)n3CCC#N)c(C#N)cc1F (single isomer, unassigned) [Example 968, 2-(1-(2-cyanoethyl)-3-(isoquinolin-4-yl)-2,4-dioxo-1,2,3,4-tetrahydrothieno[3,2-d]pyrimidin-6-yl)-5-fluoro-4-methoxybenzonitrile]
SARS-CoV-2-NLuc
  EC50: 96 nM
[1]
  IC50: 89.1 nM

## COc1cc(-c2cc3c(s2)c(=O)n(-c2cncc4nc(C)n(C)c24)c(=O)n3CCC#N)c(Cl)cc1F (single isomer, unassigned) [Example 969, 3-(6-(2-chloro-4-fluoro-5-methoxyphenyl)-3-(1,2-dimethyl-1H-imidazo[4,5-c]pyridin-7-yl)-2,4-dioxo-3,4-dihydrothieno[3,2-d]pyrimidin-1(2H)-yl)propanenitrile]
SARS-CoV-2-NLuc
  EC50: > 1000 nM
[1]
  IC50: > 1000 nM

## COc1cc(-c2cc3c(s2)c(=O)n(-c2cncc4nc(C)n(C)c24)c(=O)n3CCC#N)c(Cl)cc1F (single isomer, unassigned) [Example 970, 3-(6-(2-chloro-4-fluoro-5-methoxyphenyl)-3-(1,2-dimethyl-1H-imidazo[4,5-c]pyridin-7-yl)-2,4-dioxo-3,4-dihydrothieno[3,2-d]pyrimidin-1(2H)-yl)propanenitrile]
SARS-CoV-2-NLuc
  EC50: 18.9 nM
[1]
  IC50: 3.96 nM

## Cc1c2c(-n3c(=O)c4sc(-c5ccc(F)cc5Cl)cc4n(CCC#N)c3=O)cncc2nn1C (single isomer, unassigned) [Example 971, 3-(6-(2-chloro-4-fluorophenyl)-3-(2,3-dimethyl-2H-pyrazolo[3,4-c]pyridin-4-yl)-2,4-dioxo-3,4-dihydrothieno[3,2-d]pyrimidin-1(2H)-yl)propanenitrile]
SARS-CoV-2-NLuc
  EC50: 55.8 nM
[1]
  IC50: 13 nM

## Cc1c2c(-n3c(=O)c4sc(-c5ccc(F)cc5Cl)cc4n(CCC#N)c3=O)cncc2nn1C (single isomer, unassigned) [Example 972, 3-(6-(2-chloro-4-fluorophenyl)-3-(2,3-dimethyl-2H-pyrazolo[3,4-c]pyridin-4-yl)-2,4-dioxo-3,4-dihydrothieno[3,2-d]pyrimidin-1(2H)-yl)propanenitrile]
SARS-CoV-2-NLuc
  EC50: > 1000 nM
[1]
  IC50: > 1000 nM

## COc1cc(-c2cc3c(s2)c(=O)n(-c2cncc4nc(C(F)(F)F)n(C)c24)c(=O)n3CCC#N)c(Cl)cc1F (single isomer, unassigned) [Example 973, 3-(6-(2-chloro-4-fluoro-5-methoxyphenyl)-3-(1-methyl-2-(trifluoromethyl)-1H-imidazo[4,5-c]pyridin-7-yl)-2,4-dioxo-3,4-dihydrothieno[3,2-d]pyrimidin-1(2H)-yl)propanenitrile]
SARS-CoV-2-NLuc
  EC50: 14.7 nM
[1]
  IC50: 6.68 nM

## COc1cc(-c2cc3c(s2)c(=O)n(-c2cncc4nc(C(F)(F)F)n(C)c24)c(=O)n3CCC#N)c(Cl)cc1F (single isomer, unassigned) [Example 974, 3-(6-(2-chloro-4-fluoro-5-methoxyphenyl)-3-(1-methyl-2-(trifluoromethyl)-1H-imidazo[4,5-c]pyridin-7-yl)-2,4-dioxo-3,4-dihydrothieno[3,2-d]pyrimidin-1(2H)-yl)propanenitrile]
SARS-CoV-2-NLuc
  EC50: 602 nM
[1]
  IC50: 242 nM

## COc1cc(-c2cc3[nH]c(=O)n(-c4cncc5cccc(C)c45)c(=O)c3s2)c(Cl)cc1F (single isomer, unassigned) [Example 995, 6-(2-chloro-4-fluoro-5-methoxyphenyl)-3-(5-methylisoquinolin-4-yl)thieno[3,2-d]pyrimidine-2,4(1H,3H)-dione]
SARS-CoV-2-NLuc
  EC50: 1.26 nM
[1]
  IC50: 3.27 nM

## COc1cc(-c2cc3[nH]c(=O)n(-c4cncc5cccc(C)c45)c(=O)c3s2)c(Cl)cc1F (single isomer, unassigned) [Example 996, 6-(2-chloro-4-fluoro-5-methoxyphenyl)-3-(5-methylisoquinolin-4-yl)thieno[3,2-d]pyrimidine-2,4(1H,3H)-dione]
SARS-CoV-2-NLuc
  EC50: 1530 nM
[1]
  IC50: 6390 nM
